Laboratory results published in ChEMBL document CHEMBL1201862, “PubChem BioAssay data set” (2004).
The source made the active and inactive calls.

What was measured:
[1] = molecular target: Glyceraldehyde-3-phosphate dehydrogenase (Homo sapiens, UniProt P04406)
[2] = molecular target: T1, Replicative DNA helicase DnaB (Mycobacterium tuberculosis, UniProt P9WMR3); assay: DnaB intein splicing inhibitors, dose response, biochemical, cell-free fluorescence (AID 449749); assay type: functional
T1 sequence (P9WMR3 whole entry): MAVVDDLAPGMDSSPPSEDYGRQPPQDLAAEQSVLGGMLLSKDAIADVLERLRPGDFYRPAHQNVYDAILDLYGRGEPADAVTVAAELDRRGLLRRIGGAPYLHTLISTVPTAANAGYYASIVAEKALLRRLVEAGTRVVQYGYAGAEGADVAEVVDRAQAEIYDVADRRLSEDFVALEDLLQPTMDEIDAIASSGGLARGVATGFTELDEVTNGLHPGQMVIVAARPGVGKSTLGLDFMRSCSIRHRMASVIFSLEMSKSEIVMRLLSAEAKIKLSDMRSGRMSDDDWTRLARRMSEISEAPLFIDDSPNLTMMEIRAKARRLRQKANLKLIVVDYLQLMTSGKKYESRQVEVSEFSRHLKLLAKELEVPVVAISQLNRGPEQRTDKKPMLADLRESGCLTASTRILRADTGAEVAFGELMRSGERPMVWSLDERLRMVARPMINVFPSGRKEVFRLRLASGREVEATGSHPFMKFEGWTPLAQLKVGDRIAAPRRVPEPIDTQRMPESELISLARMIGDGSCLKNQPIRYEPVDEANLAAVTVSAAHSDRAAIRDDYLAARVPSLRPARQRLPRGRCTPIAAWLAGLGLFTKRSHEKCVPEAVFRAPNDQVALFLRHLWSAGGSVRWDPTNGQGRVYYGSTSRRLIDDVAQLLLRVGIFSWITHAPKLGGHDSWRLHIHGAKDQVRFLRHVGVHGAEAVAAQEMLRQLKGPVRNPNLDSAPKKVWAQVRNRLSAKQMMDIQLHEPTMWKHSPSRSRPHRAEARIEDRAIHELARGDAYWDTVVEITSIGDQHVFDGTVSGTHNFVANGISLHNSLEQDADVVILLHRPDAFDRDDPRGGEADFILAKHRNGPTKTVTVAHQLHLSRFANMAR

Protein RecA = molecular target: T2, Protein RecA (Mycobacterium tuberculosis, UniProt P9WHJ3); assay: Fluorescence Cell-Free Homogeneous Dose Retest to Identify Inhibitors of RecA-Intein Splicing Activity. [Related pubchem assays (depositor defined):AID2097, AID2223, AID489010, AID492950]; assay type: functional
T2 sequence (P9WHJ3 whole entry): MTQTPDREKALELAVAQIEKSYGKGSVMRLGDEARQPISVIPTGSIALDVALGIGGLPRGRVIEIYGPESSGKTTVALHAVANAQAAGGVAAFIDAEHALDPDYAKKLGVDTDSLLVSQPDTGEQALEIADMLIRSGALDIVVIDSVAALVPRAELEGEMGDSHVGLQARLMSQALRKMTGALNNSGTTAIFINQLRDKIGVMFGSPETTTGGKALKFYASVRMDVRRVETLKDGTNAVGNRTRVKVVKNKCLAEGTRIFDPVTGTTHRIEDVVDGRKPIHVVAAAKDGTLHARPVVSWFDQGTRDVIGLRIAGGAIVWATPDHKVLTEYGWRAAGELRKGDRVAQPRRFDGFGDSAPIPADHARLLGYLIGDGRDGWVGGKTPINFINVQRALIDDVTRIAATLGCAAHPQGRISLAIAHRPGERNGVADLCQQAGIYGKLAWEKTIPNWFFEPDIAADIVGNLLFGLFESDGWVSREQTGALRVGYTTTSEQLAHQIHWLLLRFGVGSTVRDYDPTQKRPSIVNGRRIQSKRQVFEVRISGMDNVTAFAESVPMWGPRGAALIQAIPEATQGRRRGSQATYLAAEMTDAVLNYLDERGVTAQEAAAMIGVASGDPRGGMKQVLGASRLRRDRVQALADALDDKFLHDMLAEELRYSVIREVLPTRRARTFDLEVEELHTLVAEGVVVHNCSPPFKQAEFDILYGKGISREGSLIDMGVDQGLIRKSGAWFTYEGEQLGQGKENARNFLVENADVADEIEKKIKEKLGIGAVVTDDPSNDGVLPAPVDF

[3] = molecular target: T3, DNA repair protein RAD52 homolog (Homo sapiens, UniProt P43351); assay type: functional, biochemical
T3 sequence (P43351 whole entry): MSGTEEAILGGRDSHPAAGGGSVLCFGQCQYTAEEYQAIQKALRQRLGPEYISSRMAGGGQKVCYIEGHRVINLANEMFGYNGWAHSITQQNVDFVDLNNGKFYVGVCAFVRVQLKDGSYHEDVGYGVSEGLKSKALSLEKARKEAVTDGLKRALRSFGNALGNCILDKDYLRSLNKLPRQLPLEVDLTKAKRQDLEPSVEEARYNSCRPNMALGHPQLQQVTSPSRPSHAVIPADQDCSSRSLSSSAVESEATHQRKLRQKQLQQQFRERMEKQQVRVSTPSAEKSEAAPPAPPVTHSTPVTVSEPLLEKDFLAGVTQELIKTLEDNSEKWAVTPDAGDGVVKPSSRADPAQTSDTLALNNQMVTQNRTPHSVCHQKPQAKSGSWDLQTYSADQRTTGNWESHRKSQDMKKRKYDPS

[4] = inhibitors of intracellular T. cruzi replication, confirmation, NIH3T3 host cells, beta-gal luminescence (AID 2044); assay type: functional, cell-based;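 note: intracellular parasites grown in NIH/3T3 mouse fibroblasts as host cells; luminescent beta-galactosidase reporter signal from transgenic T. cruzi replicating inside host cells; inhibitors lower the luminescence signal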
[5] = cytotoxicity toward NIH3T3 fibroblasts, dose response, counter-screen, cell-based, ATP luminescence, mouse fibroblasts (AID 2010); assay type: functional;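 note: cells exposed to compound for about 90 hours before reading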
[6] = P. falciparum Dd2 growth inhibitors, dose response, SYBR Green, cherry-picked samples (AID 1159567); assay type: functional, cell-based
[7] = P. falciparum 3D7-ScDHODH growth inhibitors, dose response, SYBR Green, dry powder samples (AID 1159570); assay type: functional, cell-based;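 note: parasite growth measured after 72 hours of compound exposure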
[8] = P. falciparum ATP4 D1247Y mutant growth inhibitors, dose response, NITD609-resistant line, SYBR Green, dry powder (AID 1159571); assay type: functional, cell-based;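 note: parasites synchronized at ring stage by sorbitol before testing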
[9] = P. falciparum Dd2 growth inhibitors, dose response, SYBR Green, dry powder samples (AID 1159566); assay type: functional, cell-based;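 note: potency for growth inhibition with lower SYBR green DNA signal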
[10] = molecular target: T4, Calpain-2 catalytic subunit (Sus scrofa, UniProt P43367); assay: pig calpain II inhibitor potency, dose response, biochemical, fluorogenic peptide substrate (AID 1420); assay type: functional
T4 sequence (P43367 whole entry): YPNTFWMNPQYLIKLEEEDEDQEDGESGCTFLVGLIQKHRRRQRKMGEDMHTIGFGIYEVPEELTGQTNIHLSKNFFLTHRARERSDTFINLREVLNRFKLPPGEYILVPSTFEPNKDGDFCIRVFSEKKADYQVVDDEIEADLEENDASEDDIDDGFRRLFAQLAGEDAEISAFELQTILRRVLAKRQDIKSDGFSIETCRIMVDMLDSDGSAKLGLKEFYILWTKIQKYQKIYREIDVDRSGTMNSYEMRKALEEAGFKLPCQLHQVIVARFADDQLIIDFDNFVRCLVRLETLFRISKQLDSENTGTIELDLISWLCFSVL

[11] = inhibitors of firefly luciferase expression or activity, dose response, H4 neuroglioma cells, luminescence (AID 1990); assay type: functional, cell-based
[12] = control 3'UTR Renilla luciferase suppression, dose response, counter-screen for Shn3 inhibitor project, cell-based, Clone20-Shn3RL, cherry-picked (AID 624133); assay type: functional
[13] = Shn3 3'UTR reporter inhibitors, dose response, cell-based, Clone20 osteoblasts, firefly luciferase, cherry-picked (AID 624132); assay type: functional;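 note: firefly luciferase luminescence from reporter carrying the Shn3 3'UTR in osteoblasts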
INS1 = assay: beta cell apoptosis inhibitors, cytokine rescue, dose response, luminescence, retest (AID 449756); assay type: functional, cell-based; conditions: Rattus norvegicus;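 note: cell death triggered by IL-1 beta plus TNF-alpha plus IFN-gamma mixture; protective hits raise ATP signal compared with cytokine alone wells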
[14] = HepG2 cell cytotoxicity, dose response, cytotoxicity control for Shn3 inhibitor project, CellTiter-Glo, cherry-picked (AID 624134); assay type: functional, cell-based
[15] = Luminescence Cell-Based Dose Response HTS to Identify Inhibitors of 5'UTR Stem-Loop Driven Prion Protein mRNA Translation in H4 Neuroglioblastoma Cells. [Related pubchem assays: 1827 (Project Summary), 1813 (Primary HTS)]; assay type: functional
[16] = inhibitors of SNCA 5'UTR-driven reporter translation, confirmation, H4 neuroglioma cells, luminescence (AID 1988); assay type: functional, cell-based
Cytochrome P450 2C9 = Cytochrome P450 2C9 (Homo sapiens, UniProt P11712)
[17] = molecular target: FAD-linked sulfhydryl oxidase ALR (Homo sapiens, UniProt P55789); assay: inhibitors of human ALR sulfhydryl oxidase, dose response, biochemical, H2O2 detection, luminescence, cherry-pick (AID 493248)
[18] = molecular target: Induced myeloid leukemia cell differentiation protein Mcl-1 (Homo sapiens, UniProt Q07820); assay type: functional
[19] = molecular target: T5, Short transient receptor potential channel 4 (Mus musculus, UniProt Q9QUQ5); assay: mouse TRPC4 channel activators, dose response, cell-based, HEK293 TRPC4/mu-opioid, Fluo-4 calcium (AID 434937); assay type: functional
T5 sequence (Q9QUQ5 whole entry): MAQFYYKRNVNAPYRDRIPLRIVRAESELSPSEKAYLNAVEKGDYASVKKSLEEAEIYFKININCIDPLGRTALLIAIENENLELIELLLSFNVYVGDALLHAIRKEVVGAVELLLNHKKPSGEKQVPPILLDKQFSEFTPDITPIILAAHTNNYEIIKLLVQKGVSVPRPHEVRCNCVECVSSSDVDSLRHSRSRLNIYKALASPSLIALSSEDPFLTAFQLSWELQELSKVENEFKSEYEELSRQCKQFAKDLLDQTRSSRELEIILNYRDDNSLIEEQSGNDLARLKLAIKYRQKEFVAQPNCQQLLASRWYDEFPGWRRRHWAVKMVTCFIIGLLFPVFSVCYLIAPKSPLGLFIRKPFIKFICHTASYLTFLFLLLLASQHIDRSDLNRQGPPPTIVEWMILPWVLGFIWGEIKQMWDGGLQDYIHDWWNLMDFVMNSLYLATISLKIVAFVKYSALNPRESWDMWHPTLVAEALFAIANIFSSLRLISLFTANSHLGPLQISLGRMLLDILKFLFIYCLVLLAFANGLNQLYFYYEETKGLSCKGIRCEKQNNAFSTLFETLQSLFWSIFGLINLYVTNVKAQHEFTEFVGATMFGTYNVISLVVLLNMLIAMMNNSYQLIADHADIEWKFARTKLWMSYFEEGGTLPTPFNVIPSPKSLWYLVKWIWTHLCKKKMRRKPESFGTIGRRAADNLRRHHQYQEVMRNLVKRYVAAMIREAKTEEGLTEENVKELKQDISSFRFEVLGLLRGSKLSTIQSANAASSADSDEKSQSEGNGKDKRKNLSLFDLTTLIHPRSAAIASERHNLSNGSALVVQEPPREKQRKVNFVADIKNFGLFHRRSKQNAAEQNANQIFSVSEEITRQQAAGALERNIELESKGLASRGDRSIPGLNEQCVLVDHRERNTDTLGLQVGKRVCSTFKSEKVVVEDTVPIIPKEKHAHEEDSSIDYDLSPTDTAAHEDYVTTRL

Chain of Glyceraldehyde-3-phosphate dehydrogenase (P04406 whole entry): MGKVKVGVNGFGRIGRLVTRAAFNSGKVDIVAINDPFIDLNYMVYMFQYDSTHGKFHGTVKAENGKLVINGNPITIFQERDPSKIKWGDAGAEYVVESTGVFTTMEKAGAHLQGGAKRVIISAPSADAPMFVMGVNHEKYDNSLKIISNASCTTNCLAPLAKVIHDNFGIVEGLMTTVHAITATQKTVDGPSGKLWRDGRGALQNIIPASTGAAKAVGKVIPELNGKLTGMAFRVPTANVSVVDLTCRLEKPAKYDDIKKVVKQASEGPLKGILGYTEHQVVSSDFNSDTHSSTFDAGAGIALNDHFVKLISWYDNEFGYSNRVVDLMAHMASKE
Chain of Cytochrome P450 2C9 (P11712 whole entry): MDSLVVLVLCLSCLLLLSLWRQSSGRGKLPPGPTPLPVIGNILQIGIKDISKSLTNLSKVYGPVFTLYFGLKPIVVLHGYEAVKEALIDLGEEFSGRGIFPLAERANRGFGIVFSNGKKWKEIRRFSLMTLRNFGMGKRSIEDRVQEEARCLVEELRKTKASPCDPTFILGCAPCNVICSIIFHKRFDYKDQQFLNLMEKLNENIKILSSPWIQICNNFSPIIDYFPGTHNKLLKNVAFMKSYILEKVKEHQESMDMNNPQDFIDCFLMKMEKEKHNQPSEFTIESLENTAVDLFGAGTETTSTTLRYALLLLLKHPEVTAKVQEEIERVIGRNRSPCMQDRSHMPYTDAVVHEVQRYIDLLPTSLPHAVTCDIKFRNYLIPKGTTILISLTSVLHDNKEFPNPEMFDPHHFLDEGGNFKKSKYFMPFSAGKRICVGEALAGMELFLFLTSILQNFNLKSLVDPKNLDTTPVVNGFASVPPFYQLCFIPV
Chain of Induced myeloid leukemia cell differentiation protein Mcl-1 (Q07820 whole entry): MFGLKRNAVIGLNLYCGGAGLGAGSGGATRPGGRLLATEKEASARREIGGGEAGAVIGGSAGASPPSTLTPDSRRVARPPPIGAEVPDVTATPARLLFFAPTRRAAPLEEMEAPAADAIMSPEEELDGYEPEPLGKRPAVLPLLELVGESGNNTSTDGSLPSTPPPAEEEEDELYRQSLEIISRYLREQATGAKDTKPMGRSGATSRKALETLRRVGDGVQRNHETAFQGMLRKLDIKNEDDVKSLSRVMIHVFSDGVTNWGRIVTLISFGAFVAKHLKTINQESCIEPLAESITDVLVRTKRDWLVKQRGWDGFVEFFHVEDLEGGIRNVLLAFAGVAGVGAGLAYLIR
Chain of FAD-linked sulfhydryl oxidase ALR (P55789 whole entry): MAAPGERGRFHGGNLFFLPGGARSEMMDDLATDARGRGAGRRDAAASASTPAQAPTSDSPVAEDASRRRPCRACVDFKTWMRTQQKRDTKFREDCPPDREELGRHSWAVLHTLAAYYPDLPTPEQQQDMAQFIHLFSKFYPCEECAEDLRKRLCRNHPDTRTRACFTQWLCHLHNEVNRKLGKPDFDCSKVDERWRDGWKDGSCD

COc1cccc(N2CCN(C3=C(Cl)C(=O)N(c4cccc(C)c4)C3=O)CC2)c1
IC50 [1]: > 50 µM (inconclusive)

CCCCCCOC(=O)c1ccccc1NC(=O)/C=C/C(=O)O
AC50 [2]: > 380 µM (inactive) | EC50 (Protein RecA): 3.41 µM (active)

CN1CCN(CCCNC(=O)c2ccc(/C=C3/Sc4ccccc4N(Cc4cccc(Cl)c4)C3=O)cc2)CC1
AC50 [3]: 14 µM (active) | EC50 [4]: 0.11 µM (active) | EC50 [5]: 5.71 µM (active)

O=C1C(Cl)=C(N2CCN(C/C=C/c3ccccc3)CC2)C(=O)N1c1cccc(C(F)(F)F)c1
IC50 [1]: > 50 µM (inconclusive)

CC(C)(C)[S@+]([O-])N1Cc2cc(C(=O)N[C@@H]3CCN(Cc4ccccc4)C3)nc(-c3cccc(-c4cccnc4)c3)c2[C@@H]1CCO
AC50 [6]: 1.93 µM (active) | AC50 [7]: 2.62 µM (active) | AC50 [8]: 1.98 µM (active) | AC50 [9]: 1.99 µM (active)

CCOC(=O)C1(CC2CCCCO2)CCN(C(=O)Nc2ccc(C)c(C)c2)CC1 (stereo unspecified)
IC50 [10]: > 50 µM (not active)

COc1ccc(CNCCc2c(C)[nH]c3ccc(OC(F)(F)F)cc23)c(OC)c1
EC50 [11]: 17.7 µM (active) | AC50 [12]: 8.45 µM (active) | AC50 [13]: 0.963 µM (active) | EC50 [4]: 0.703 µM (active) | EC50 [5]: > 60 µM (not active) | AC50 (INS1): 4.68 µM (active) | AC50 [14]: 9.13 µM (active) | EC50 [15]: > 120 µM (not active) | EC50 [16]: > 120 µM (not active)

COc1ccccc1CNc1nc(NCc2ccc(C(C)C)cc2)c2sccc2n1
AC50 [12]: 10.5 µM (active) | AC50 [13]: 6.81 µM (active) | AC50 [14]: 39.4 µM (active)

CN1CCN(CC(O)COc2ccc(C34CC5CC(CC(C5)C3)C4)cc2)CC1 (stereo unspecified)
AC50 [3]: 10.5 µM (active)

CC1CCc2c(sc3c2C2=NS(=O)(=O)CCN2C=N3)C1 (stereo unspecified)
IC50 [10]: 9.53 µM (not active)

Cc1ccc(Sc2c([N+](=O)[O-])ncn2C)cc1
AC50 (Cytochrome P450 2C9): 1.58 µM (inconclusive) | AC50 [2]: 112 µM (active) | AC50 [17]: 0.27 µM (active) | EC50 (Protein RecA): 34.6 µM (active)

CCCCN(CC)CC/N=c1/c(N2CCN(C(=O)OCC)CC2)c(O)c1=O
IC50 [18]: 0.433 µM (active) | EC50 [19]: 1.68 µM (active)

FC(F)(F)C1CC(c2cccs2)Nc2ncnn21 (stereo unspecified)
IC50 [10]: 0.904 µM (not active)

CC1=NNC(=O)C1C(c1ccc(Cl)cc1)C(C#N)C#N (stereo unspecified)
AC50 [2]: 7.84 µM (active) | EC50 (Protein RecA): 3.26 µM (active)

COc1ccc(C#Cc2cnc3c(c2)C(=O)N([C@H](C)CO)C[C@H](C)[C@H](CN(C)S(=O)(=O)c2cccc(F)c2)O3)cc1OC
AC50 [6]: 1.38 µM (active) | AC50 [7]: 1.8 µM (active) | AC50 [8]: 1.17 µM (active) | AC50 [9]: 0.774 µM (active)

CCCc1n[nH]c2c1C(c1ccccc1OC)C(C#N)=C(N)O2 (stereo unspecified)
AC50 [2]: 15.9 µM (active) | EC50 (Protein RecA): 2.07 µM (active)
